Results on 16 compounds are retold here after patent publication US20190175560A1, “MEBENDAZOLE CANCER THERAPIES AND METHODS OF USE” (Shepherd Therapeutics, Inc., priority 2017, published 2019).

Holding throughout (format): cell-based
In test [1] the test system is STC-1 carcinoid tumor cell line. The test can be described thus: Synergy of MBZ with chemotherapeutic agents (Chou-Talalay CI, Cell Titer Glo). To be noted: in combination with MBZ, 72 hour incubation.
Method: (§1) For in vitro experiments, cells were plated in triplicate and treated with a range of concentrations of MBZ and relevant chemotherapeutic agents in a complete Latin square.
(§2) Cells were plated in triplicate and treated with a range of 5 concentrations of MBZ in combination with 5 concentrations of chemotherapeutic agents in a complete Latin square. Following a 72 hour incubation, cell viability was determined using Cell Titer Glo. The Combination index (CI) was determined based on the method described by Chou and Talalay (2010) with a CI value less than 0.9 indicating synergy.
In test [2] the test system is CCC-5 cholangiocarcinoma cells. The test is described as above. To be noted: in combination with MBZ, 72 hour incubation.
Method: as §1
(§3) Cells were plated in triplicate and treated with a range of 5 concentrations of MBZ in combination with 5 concentrations of chemotherapeutic agents in a complete Latin square. Following a 72 hour incubation, cell viability was determined using Cell Titer Glo.
Test [3] has as its system HCT116 colorectal carcinoma cells. The test is described as above. Conditions: in combination with MBZ, 72 hour incubation.
Method: as §1, §3
The test system of test [4] is Colo-205 colorectal carcinoma cells. Described as above. Conditions: in combination with MBZ, 72 hour incubation.
Method: as §1, §3
In test [5] the test system is Flo-1 esophageal carcinoma cells. The description is as above. To be noted: in combination with MBZ, 72 hour incubation.
Method: as §1, §3
The subject of test [6] is Kato-III gastric carcinoma cells. Described as above. To be noted: in combination with MBZ, 72 hour incubation.
Method: as §1, §3
Test [7] relates to SNU16 gastric carcinoma cells. In words: Synergy of MBZ or HA-PLGA-MBZ with chemotherapeutic agents (Chou-Talalay CI, Cell Titer Glo). To be noted: in combination with MBZ; SNU16; 72 hour incubation.
Method: as §1, §3
(§4) In table 22 below, cells were plated in triplicate and treated with a range of 5 concentrations of MBZ or HA-PLGA-MBZ nanoparticles containing a molar equivalent of MBZ, and 5 concentrations of relevant chemotherapeutic agents in a complete Latin square. Combination indexes (CI) were determined based on the method described by Chou-Talalay with a CI value less than 0.9 indicating synergy. […] Numbers in parentheses represent the range of synergistic CI values for each cell line and drug combination.
Test [8] concerns BxPC-3 pancreatic carcinoma cells. In words: Synergy of MBZ with chemotherapeutic agents (Chou-Talalay CI, Cell Titer Glo). Conditions: in combination with MBZ, 72 hour incubation.
Method: as §1, §3
Test [9] relates to Hs766t pancreatic carcinoma cells. Described as above. Conditions: in combination with MBZ, 72 hour incubation.
Method: as §2
In test [10] the test system is GIST-1 gastrointestinal stromal tumor cell line. In words: Synergy of MBZ with small molecule agents (Chou-Talalay CI, Cell Titer Glo). Conditions: in combination with MBZ, 72 hour incubation.
Method: (§5) For in vitro experiments, cells were plated in triplicate and treated with a range of concentrations of MBZ and relevant chemotherapeutic agents in a complete Latin square. Combination indexes (CI) were determined based on the method described by Chou and Talalay (Cancer Res. 2010 Jan. 15; 70(2):440-6. doi: 10.1158/0008-5472.CAN-09-1947. Epub 2010 Jan. 12).
as §2
Test [11] deals with OE-33 esophageal carcinoma cells. The test can be described thus: Synergy of MBZ with chemotherapeutic agents (Chou-Talalay CI, Cell Titer Glo). Conditions: in combination with MBZ, 72 hour incubation.
Method: as §1, §3
For another test, the system named is JU77 mesothelioma cells. The test is described as above. To be noted: in combination with MBZ, 72 hour incubation.
The next test concerns LO68 mesothelioma cells. The description is as above. To be noted: in combination with MBZ, 72 hour incubation.
Test [12] concerns MSTO-211H mesothelioma cells. The description is as above. To be noted: in combination with MBZ, 72 hour incubation.
Method: as §1, §2
In test [13] the test system is CHP-212 neuroblastoma cells. The test can be described thus: Synergy of MBZ or HA-PLGA-MBZ with chemotherapeutic agents (Chou-Talalay CI, Cell Titer Glo). To be noted: in combination with MBZ; CHP-212; 72 hour incubation.
Method: as §1, §3, §4
The subject of test [14] is SK-N-AS neuroblastoma cells. In words: Synergy of MBZ with chemotherapeutic agents (Chou-Talalay CI, Cell Titer Glo). To be noted: in combination with MBZ, 72 hour incubation.
Method: as §2
Test [15] has as its system COV362 ovarian carcinoma cells. Described as above. To be noted: in combination with MBZ, 72 hour incubation.
Method: as §1, §3
Test [16] concerns TOV-112D ovarian carcinoma cells. The test is described as above. Conditions: in combination with MBZ, 72 hour incubation.
Method: as §1, §2
The test system of test [17] is H295R adrenocortical carcinoma cells. The test is described as above. Conditions: in combination with MBZ, 72 hour incubation.
Method: as §5, §2
In test [18] the test system is SW13 adrenocortical carcinoma cells. The description is as above. Conditions: in combination with MBZ, 72 hour incubation.
Method: as §2
Test [19] has as its system TFK-1 cholangiocarcinoma cells. The test is described as above. Conditions: in combination with MBZ, 72 hour incubation.
Method: as §5, §2
The test system of test [20] is DMS-114 small cell lung carcinoma cells. The description is as above. To be noted: in combination with MBZ, 72 hour incubation.
Method: as §5, §2
Test [21] deals with SW-1271 small cell lung carcinoma cells. The test is described as above. To be noted: in combination with MBZ, 72 hour incubation.
Method: as §1, §2
In test [22] the test system is PC12 pheochromocytoma/paraganglioma cell line. In words: Synergy of MBZ or HA-PLGA-MBZ with chemotherapeutic agents (Chou-Talalay CI, Cell Titer Glo). To be noted: in combination with MBZ; PC12; 72 hour incubation.
Method: as §1, §3, §4
In test [23] the test system is SK-LMS-1 leiomyosarcoma cells. The test can be described thus: Synergy of MBZ with chemotherapeutic agents (Chou-Talalay CI, Cell Titer Glo). Conditions: in combination with MBZ, 72 hour incubation.
Method: as §2
For test [24], the system named is SK-UT-1 leiomyosarcoma cells. Described as above. To be noted: in combination with MBZ, 72 hour incubation.
Method: as §2
Test [25] deals with SK-UT-1B leiomyosarcoma cells. The description is as above. Conditions: in combination with MBZ, 72 hour incubation.
Method: as §5, §2
Test [26] has as its system HepG2 hepatocellular carcinoma cells. The description is as above. To be noted: in combination with MBZ, 72 hour incubation.
Method: as §1, §3

Method for JU77 mesothelioma cells: as §1, §2
Method for LO68 mesothelioma cells: as §1, §2

On to `O=c1[nH]cc(F)c(=O)[nH]1` [5-FU, 5-Fluorouracil], for which the “CI range for the concentration pairings” value in test [1] is 0.458-0.850; in [2] it was 0.252-0.878; in [3], 0.285-0.860; in [4] it was 0.528-0.748; in [5], 0.370-0.855; in test [6] it was 0.073-0.558. The “CI range for the concentration pairings” value in [7] was 0.429-0.827; in test [8] it was 0.448-0.792; in test [9] it was 0.170-0.877.
As to `CCN1CCN(Cc2ccc(Nc3ncc(F)c(-c4cc(F)c5nc(C)n(C(C)C)c5c4)n3)nc2)CC1` [Abemaciclib], the “CI range for the concentration pairings” value in test [10] is recorded as 0.390-0.701.
As for `N.N.O=C([O-])C1(C(=O)[O-])CCC1.[Pt+2]` [Carboplatin], the “CI range for the concentration pairings” value in [5] is reported as 0.063-0.603; in [11], 0.542-0.636; in test [7], 0.409-0.783; in the test with JU77 mesothelioma cells it was 0.539-0.841; in the test on LO68 mesothelioma cells, 0.574-0.865; in [13], 0.587-0.876. Moreover, the entries for the “CI range for the concentration pairings” value in [14], in test [15] and in [16] were 0.433-0.891, 0.553-0.860 and 0.506-0.845, respectively. In addition, the “synergy with MBZ (Yes/No)” value in test [6] and in [12] was “No” throughout.
For the compound `N.N.[Cl][Pt][Cl]` [Cisplatin], the “CI range for the concentration pairings” value in test [17] was 0.544-0.771; in test [18] it was 0.410-0.883; in [1], 0.441-0.785; in [2], 0.121-0.716; in [19], 0.405-0.877; in test [13], 0.653-0.896. In addition, the “CI range for the concentration pairings” value in [14] is 0.141-0.746; in [15] it was 0.578-0.878; in [16] it was 0.497-0.860; in test [8], 0.469-0.762; in test [9], 0.658-0.847; in test [20], 0.223-0.837. Moreover, the “CI range for the concentration pairings” value in test [21] is 0.275-0.763.
Take `O=P1(N(CCCl)CCCl)NCCCO1` (stereo not drawn) [Cyclophosphamide]: the “CI range for the concentration pairings” value in test [1] is on record as 0.226-0.784; in test [13], 0.569-0.860; in test [22] it was 0.388-0.879.
`CN(C)/N=N/c1[nH]cnc1C(N)=O` [Dacarbazine]: the “CI range for the concentration pairings” value in [22] is given as 0.246-0.785.
Turning to `CC(=O)O[C@@]12CO[C@@H]1C[C@H](O)[C@@]1(C)C(=O)[C@H](O)C3=C(C)[C@@H](OC(=O)[C@H](O)[C@@H](NC(=O)OC(C)(C)C)c4ccccc4)C[C@@](O)([C@@H](OC(=O)c4ccccc4)[C@H]21)C3(C)C` [Docetaxel], the “synergy with MBZ (Yes/No)” value in test [23] and in test [16] was “No” in each case. Further, in test [15], the “CI range for the concentration pairings” value is recorded as 0.399-0.867.
As to `COc1cccc2c1C(=O)c1c(O)c3c(c(O)c1C2=O)C[C@@](O)(C(=O)CO)C[C@@H]3O[C@H]1C[C@H](N)[C@H](O)[C@H](C)O1` [Doxorubicin], the “synergy with MBZ (Yes/No)” value in test [17] and in test [24] was “No” each time. The “CI range for the concentration pairings” value is 0.771-0.850 in test [18]; 0.419-0.829 in test [1]; 0.514-0.872 in test [23]; 0.716-0.887 in test [25]; 0.458-0.820 in the test with JU77 mesothelioma cells; 0.433-0.875 in the test on LO68 mesothelioma cells. The “CI range for the concentration pairings” value in test [12] was 0.288-0.700; in test [13], 0.646-0.883; in test [14], 0.267-0.849.
As to `COc1cc([C@@H]2c3cc4c(cc3[C@@H](O[C@@H]3O[C@@H]5CO[C@@H](C)O[C@H]5[C@H](O)[C@H]3O)[C@H]3COC(=O)[C@H]23)OCO4)cc(OC)c1O` [Etoposide], the “CI range for the concentration pairings” value in [18] is 0.618-0.710; in test [1], 0.253-0.893; in test [3] it was 0.607-0.890; in test [4] it was 0.293-0.707; in [13], 0.647-0.891; in test [20] it was 0.551-0.832. Further, the “CI range for the concentration pairings” value in [21] was 0.535-0.899.
`O=P1(NCCCl)OCCCN1CCCl` (stereo not drawn) [Ifosamide]: in test [24], the “CI range for the concentration pairings” value is listed as 0.317-0.708.
Consider `Cc1ccc(NC(=O)c2ccc(CN3CCN(C)CC3)cc2)cc1Nc1nccc(-c2cccnc2)n1` [Imatinib], for which the “CI range for the concentration pairings” value in [10] is listed as 0.627-0.875.
As for `CCc1c2c(nc3ccc(OC(=O)N4CCC(N5CCCCC5)CC4)cc13)-c1cc3c(c(=O)n1C2)COC(=O)[C@]3(O)CC` [Irinotecan], the “CI range for the concentration pairings” value was 0.545-0.793 in [3]; 0.502-0.819 in test [4]; 0.439-0.871 in [5]; 0.589-0.757 in [11]; 0.635-0.871 in test [7]; 0.659-0.793 in [8]. The “synergy with MBZ (Yes/No)” value in test [6] and in [9] was “No” each time.
Turning to `O=C1[O][Pt]2([NH][C@@H]3CCCC[C@H]3[NH]2)[O]C1=O` [Oxaliplatin], the “CI range for the concentration pairings” value in test [2] is recorded as 0.060-0.631; in test [3], 0.493-0.728; in test [5], 0.355-0.875; in test [11], 0.395-0.597; in [6] it was 0.587-0.897; in test [7], 0.571-0.883. In addition, the entries for the “CI range for the concentration pairings” value in test [26] and in [8] were 0.036-0.834 and 0.455-0.758, respectively.
Take `CC(=O)O[C@H]1C(=O)[C@@]2(C)[C@H]([C@H](OC(=O)c3ccccc3)[C@]3(O)C[C@H](OC(=O)[C@H](O)[C@@H](NC(=O)c4ccccc4)c4ccccc4)C(C)=C1C3(C)C)[C@]1(OC(C)=O)CO[C@@H]1C[C@@H]2O` [Paclitaxel]: the “CI range for the concentration pairings” value was 0.430-0.864 in [5]; 0.193-0.508 in [6]; 0.425-0.883 in [7]; 0.318-0.889 in [15]; 0.367-0.839 in [16]; 0.341-0.845 in test [8].
For the compound `CC[C@]1(O)C[C@H]2CN(CCc3c([nH]c4ccccc34)[C@@](C(=O)OC)(c3cc4c(cc3OC)N(C=O)[C@H]3[C@@](O)(C(=O)OC)[C@H](OC(C)=O)[C@]5(CC)C=CCN6CC[C@]43[C@@H]65)C2)C1` [Vincristine], the “CI range for the concentration pairings” value in test [22] is recorded as 0.274-0.871.
In the case of `CCC1=C[C@@H]2CN(C1)Cc1c([nH]c3ccccc13)[C@@](C(=O)OC)(c1cc3c(cc1OC)N(C)[C@H]1[C@@](O)(C(=O)OC)[C@H](OC(C)=O)[C@]4(CC)C=CCN5CC[C@]31[C@@H]54)C2` [Vinorelbine], the “CI range for the concentration pairings” value in the test with JU77 mesothelioma cells is given as 0.325-0.799; in the test on LO68 mesothelioma cells, 0.445-0.872; in test [12] it was 0.087-0.885.
